The target of this assay is T1, bromodomain of BRD9 (GST-BRD9 aa 130-259) / H3 K9/14/18/23Ac(1-28) peptide (Homo sapiens, UniProt Q9H8M2).
T1 construct: The protein corresponding to amino acids 130-259 that contains the bromodomain of BRD9; made in house; host or cells: E. coli
T1 sequence (Q9H8M2 130-259): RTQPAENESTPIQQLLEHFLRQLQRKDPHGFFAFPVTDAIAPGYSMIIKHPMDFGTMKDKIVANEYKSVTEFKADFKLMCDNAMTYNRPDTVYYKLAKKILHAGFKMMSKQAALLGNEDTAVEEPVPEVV
Kind of assay: BRD9-H3 tetra-acetylated Peptide Inhibition AlphaScreen. The class given is binding. (In general: Alpha assays give light when donor and acceptor beads are brought close together.)

Experimental findings from patent US11319318B2, “Pyridinones and isoquinolinones as inhibitors of the bromodomain BRD9” (Boehringer Ingelheim International GmbH, priority 2015, dated 2022) are described below.

Text: Biological Methods BRD9-H3 tetra-acetylated Peptide Inhibition AlphaScreen
This assay is used to identify compounds which inhibit the interaction of the bromodomain of BRD9 with a tetra-acetylated peptide based on the sequence of histone H3 (H3 K9/14/18/23Ac (1-28)).
AlphaScreen Beads (Perkin Elmer):
AlphaLISA Glutathione Acceptor Beads
AlphaScreen Streptavidin Donor Beads
The assay is done in a darkened room below 100 Lux.
Compounds are dispensed onto assay plates using an Access Labcyte Workstation with the Labcyte Echo 550 from a DMSO solution. For the chosen highest concentration of 100 μM, 150 nl of compound solution are transferred from a 10 mM DMSO solution. […] DMSO is added such that every well has a total of 150 nl of DMSO.
After 60 min at room temperature the signal is measured in a PerkinElmer Envision HTS Multilabel Reader using the AlphaScreen specifications from PerkinElmer.
Each plate contains negative controls where biotinylated H3 K9/14/18/23Ac(1-28) peptide and GST-BRD9 are left out and replaced by assay buffer. Negative control values are entered as low basis value when using the software GraphPad Prism for calculations.

Compound `Cc1cc(-c2cc(C)c(=O)n(C)c2)c(C)cc1CN1CCN(C)CC1` [Compound I-187] displayed an IC50 of 4300 nM.
Consider `Cc1cc(-c2ccc(CN3CCN(C)CC3)c(O)c2)cn(C)c1=O` [Compound I-194, 5-[3-Hydroxy-4-(4-methyl-piperazin-1-ylmethyl)-phenyl]-1,3-dimethyl-1H-pyridin-2-one], for which the IC50 is 458 nM.
In turn, `COCCOc1cc(-c2cc(C)c(=O)n(C)c2)ccc1CN1CCN(C)CC1` [Compound I-195, 5-[3-(2-Methoxy-ethoxy)-4-(4-methyl-piperazin-1-ylmethyl)-phenyl]-1,3-dimethyl-1H-pyridin-2-one] gave an IC50 of 369 nM.
`Cc1cc(-c2ccc(CN3CCN(C)CC3)c(OC(C)C)c2)cn(C)c1=O` [Compound I-196] came in with an IC50 of 1010 nM.
In the case of `CCOc1cc(-c2cc(C)c(=O)n(C)c2)ccc1CN1CCN(C)CC1` [Compound I-197, 5-[3-Ethoxy-4-(4-methyl-piperazin-1-ylmethyl)-phenyl]-1,3-dimethyl-1H-pyridin-2-one], the IC50 is 468 nM.
In the case of `COc1cc(-c2cc(C)c(=O)n(C)c2)ccc1CN1CCN(Cc2cccc(N)c2)CC1` [Compound I-198, 5-{4-[4-(3-Amino-benzyl)-piperazin-1-ylmethyl]-3-methoxy-phenyl}-1,3-dimethyl-1H-pyridin-2-one], the IC50 came to 71 nM.
`COc1cc(-c2cc(C)c(=O)n(C)c2)ccc1CN1CCN(Cc2ccc3nc[nH]c3c2)CC1` [Compound I-199]: inhibition was half-maximal at 55 nM (IC50).
For the compound `COc1cc(-c2cc(C)c(=O)n(C)c2)ccc1CN1CCN(Cc2cccc(O)c2)CC1` [Compound I-200], the IC50 worked out at 132 nM.
As for `COc1cc(-c2cc(C)c(=O)n(C)c2)cc(C)c1CN` [Compound I-202, 5-(4-Aminomethyl-3-methoxy-5-methyl-phenyl)-1,3-dimethyl-1H-pyridin-2-one], the figure is 268 nM; as for `Cc1cc(-c2ccc(CN3CCN(C)CC3)c(N(C)C)c2)cn(C)c1=O` [Compound I-204, 5-[3-Dimethylamino-4-(4-methyl-piperazin-1-ylmethyl)-phenyl]-1,3-dimethyl-1H-pyridin-2-one], 231 nM.
Take `COc1cc(-c2cc(C)c(=O)n(C)c2)cc(OC)c1CNC1CN(C)C1` [Compound I-205, 5-{3,5-Dimethoxy-4-[(1-methyl-azetidin-3-ylamino)-methyl]-phenyl}-1,3-dimethyl-1H-pyridin-2-one]: the IC50 is 69 nM.
As for `COc1cc(-c2cc(C)c(=O)n(C)c2)ccc1CN1CC(N(C)C)C1` [Compound I-206, 5-[4-(3-Dimethylamino-azetidin-1-ylmethyl)-3-methoxy-phenyl]-1,3-dimethyl-1H-pyridin-2-one], the figure is 479 nM; as for `COc1cc(-c2cc(C)c(=O)n(C)c2)cc(OC)c1CN(C)C1CNC1` [Compound I-207, 5-{4-[(Azetidin-3-yl-methyl-amino)-methyl]-3,5-dimethoxy-phenyl}-1,3-dimethyl-1H-pyridin-2-one], 93 nM; as for `COc1cc(-c2cc(C)c(=O)n(C)c2)cc(OC)c1CN(C)C1CN(C)C1` [Compound I-208, 5-(3,5-Dimethoxy-4-{[methyl-(1-methyl-azetidin-3-yl)-amino]-methyl}-phenyl)-1,3-dimethyl-1H-pyridin-2-one], 114 nM.
Take `Cc1cc(-c2ccc3c(c2)CN(C)C3)cn(C)c1=O` [Compound I-209, 1,3-Dimethyl-5-(2-methyl-2,3-dihydro-1H-isoindol-5-yl)-1H-pyridin-2-one]: the IC50 is 218 nM.
`Cc1cc(-c2ccc3c(c2)CCN(C)C3)cn(C)c1=O` [Compound I-210] yielded an IC50 of 302 nM.
As for `Cc1cc(-c2ccc3c(c2)CCN(C)C3)c(C)n(C)c1=O` [Compound I-211], the IC50 came out at 468 nM.
In turn, `Cc1cc(-c2ccc3c(c2)CN(C)C3)c(C)n(C)c1=O` [Compound I-212] came in with an IC50 of 750 nM.
The figure for `Cc1c(-c2ccc(C(N)=O)cc2)cn(C)c(=O)c1C` [Compound I-213] is 5320 nM; for `Cc1cc(-c2ccc(C(=O)N3CCN(C)CC3)cc2)c(C)n(C)c1=O` [Compound I-214] it is 3210 nM; for `Cc1cc(-c2ccc(N3CCOCC3)cc2)c(C)n(C)c1=O` [Compound I-215] it is 9200 nM.
The figure for `COc1cc(-c2cn(C)c(=O)c3ccccc23)cc(OC)c1CN1CC(O)C1` [II-1, 4-[4-(3-Hydroxy-azetidin-1-ylmethyl)-3,5-dimethoxy-phenyl]-2-methyl-2H-isoquinolin-1-one] is 8 nM.
Turning to `CN(C)Cc1ccc(-c2cn(C)c(=O)c3ccccc23)cc1` [II-5], half-maximal inhibition (IC50) required 916 nM.
`CN1CCN(C(=O)c2ccc(-c3cn(C)c(=O)c4cnccc34)cc2)CC1` [II-8]: the IC50 came out at 953 nM.
The figure for `Cn1cc(-c2ccc(C(N)=O)cc2)c2ccncc2c1=O` [II-9] is 1400 nM; for `COc1cc(-c2cn(C)c(=O)c3cncnc23)cc(OC)c1CN1CC(O)C1` [II-11] it is 42 nM.
As for `COc1cc(-c2cn(C)c(=O)c3cncnc23)c(OC)cc1CN(C)C` [II-12], the figure is 344 nM; as for `Cn1cc(-c2ccc(C(=O)N3CCNCC3)cc2)c2ncncc2c1=O` [II-13], 589 nM.
Turning to `Cn1cc(-c2ccc(C(=O)N3CCNCC3)cc2)c2cccnc2c1=O` [II-14], 1380 nM corresponded to half-maximal inhibition (IC50).
As to `CN1CCN(C(=O)c2ccc(-c3nn(C)c(=O)c4ccccc34)cc2)CC1` [II-17], the IC50 worked out at 16300 nM.
The figure for `COc1cc(-c2cn(C)c(=O)c3ccc(Cn4cccn4)cc23)cc(OC)c1CN(C)C` [II-19] is 31 nM; for `CN(C)Cc1ccc(-c2cn(C)c(=O)c3ccc(Cn4cccn4)cc23)cc1` [II-20] it is 178 nM; for `COc1cc(-c2cn(C)c(=O)c3ncccc23)c(OC)cc1CN(C)C` [II-22] it is 2140 nM.
`COc1cc(-c2cn(C)c(=O)c3ccncc23)c(OC)cc1CN(C)C` [II-24]: it took 609 nM to reach half-maximal inhibition (IC50).
As for `COc1cc(-c2cn(C)c(=O)c3cccnc23)c(OC)cc1CN(C)C` [II-26], the figure is 630 nM; as for `COc1cc(-c2cn(C)c(=O)c3cncnc23)cc(OC)c1CN1CC(N)C1` [II-30, 8-[4-(3-Amino-azetidin-1-ylmethyl)-3,5-dimethoxy-phenyl]-6-methyl-6H-pyrido[4,3-d]pyrimidin-5-one], 5 nM; as for `COc1cc(-c2cn(C)c(=O)c3cnccc23)cc(OC)c1CN1CC(N)C1` [II-31], 11 nM.
As for `COc1cc(-c2cn(C)c(=O)c3cnccc23)cc(OC)c1CNC1CNC1` [II-32], the figure is 24 nM; as for `COc1cc(-c2cn(C)c(=O)c3cncnc23)cc(OC)c1CNC1CNC1` [II-33], 23 nM.
As for `COc1cc(-c2cn(C)c(=O)c3cnccc23)cc(OC)c1CN1CC(O)C1` [II-34], the figure is 8 nM; as for `COc1cc(-c2cn(C)c(=O)c3ccccc23)ccc1CN(C)C` [II-41, 4-(4-Dimethylaminomethyl-3-methoxy-phenyl)-2-methyl-2H-isoquinolin-1-one], 126 nM.
On to `Cn1cc(-c2ccc(C(=O)N3CCNCC3)cc2)c2ccccc2c1=O` [II-42, 2-Methyl-4-[4-(piperazine-1-carbonyl)-phenyl]-2H-isoquinolin-1-one], for which the IC50 worked out at 439 nM.
As to `CN1CCN(Cc2ccc(-c3cn(C)c(=O)c4ccccc34)cc2)CC1` [II-43], the IC50 was determined as 890 nM.
The compound `C[C@@H](N)c1ccc(-c2cn(C)c(=O)c3ccccc23)cc1` [II-44] came in with an IC50 of 917 nM.
As for `Cc1cc(-c2cn(C)c(=O)c3ccccc23)ccc1C(=O)N1CCN(C)CC1` [II-45], the figure is 981 nM; as for `C[C@H](N)c1ccc(-c2cn(C)c(=O)c3ccccc23)cc1` [II-46], 1010 nM; as for `Cc1cc(-c2cn(C)c(=O)c3ccccc23)ccc1C(=O)N(C)C` [II-47], 1190 nM.
On to `Cn1cc(-c2ccc(CN)cc2)c2ccccc2c1=O` [II-48], for which the IC50 was 1550 nM.
The figure for `Cc1cc(-c2cn(C)c(=O)c3ccccc23)ccc1C(N)=O` [II-49] is 3140 nM; for `CN1CCN(C(=O)c2ccc(-c3cn(C)c(=O)c4ncccc34)cc2)CC1` [II-50] it is 4850 nM.
As for `CN1CCN(C(=O)c2ccc(-c3cn(C)c(=O)c4cncnc34)cc2)CC1` [II-51], the figure is 5270 nM.
The figure for `COc1cc(-c2cn(C)c(=O)c3[nH]ccc23)ccc1CN1C[C@H]2C[C@@H]1CN2C` [III-2, 4-[3-Methoxy-4-((1R,4R)-5-methyl-2,5-diaza-bicyclo[2.2.1]hept-2-ylmethyl)-phenyl]-6-methyl-1,6-dihydro-pyrrolo[2,3-c]pyridin-7-one] is 39 nM; for `COc1cc(-c2cn(C)c(=O)c3[nH]ccc23)ccc1CN1C[C@@H]2CC1CN2` [III-3] it is 46 nM; for `COc1cc(-c2cn(C)c(=O)c3[nH]ccc23)ccc1CN1C[C@@H]2CC1CN2C` [III-4] it is 62 nM.
Regarding `Cc1cc(-c2cn(C)c(=O)c3[nH]ccc23)ccc1C(=O)N1CCNCC1` [III-5], it took 68 nM to reach half-maximal inhibition (IC50).
The figure for `Cn1cc(-c2ccc(C(=O)N3CCNCC3)cc2)c2cc[nH]c2c1=O` [III-6] is 81 nM.
The figure for `COc1cc(-c2cn(C)c(=O)c3[nH]ccc23)ccc1C(=O)N1CCN(C)CC1` [III-7] is 95 nM.
The figure for `Cc1cc(-c2cn(C)c(=O)c3[nH]ccc23)ccc1C(=O)N1CCN(C)CC1` [III-8] is 340 nM; for `CN1CCN(C(=O)c2ccc(-c3cn(C)c(=O)c4[nH]ccc34)cc2)CC1` [III-9] it is 391 nM.
Regarding `Cn1cc(-c2ccc(C(=O)N3CCC3)cc2)c2cc[nH]c2c1=O` [III-10], the IC50 is 487 nM.

One may read the IC50 as the concentration that gives 50% inhibition. A high value points to a need for much substance.
